In one series the test system is Female Balb/c mice. Kind of series: Writhing test in mice, writhing induced by IP acetic acid (Example 13). In kind it is in vivo. Here is the method:
Experiments 1: The experiments were carried out on Female Balb/c mice (21-26g). Two experimental groups were used: control (untreated) (n=6) and treated group (n=6). […] Half an hour after nasal application, each animal in treated and control groups was IP administered with acetic acid 0.6% (10 ml/kg) and individually housed in cage with a smooth flat floor. Antinociception effect was recorded by counting the number of writhes 5 minutes after injection of acetic acid for period of 10 minutes. A writhe is indicated by abdominal constriction and stretching of at least one hind limb.
Experiment 2: The experiment was carried out on Female Balb/c mice (21-26g). Two experimental groups were used: control (untreated) (n=6) and treated group (n=6). […] Immediately after nasal application (t=0), each animal in treated and control groups was IP administered with acetic acid 0.6% (10 ml/kg) and individually housed in cage with a smooth flat floor. Antinociception was recorded by counting the number of writhes 5 minutes after injection of acetic acid for period of 10 minutes.
Experiment 3: The experiments were carried out on Female Balb/c mice (21-26g). Three experimental groups were used: control (untreated) (n=4), mice intranasally administered with the Diazepam IN vesicular composition (2.8µl in each nostril = diazepam dose of 5mg/kg animal) (n=4), and mice subcutaneously administered with the Diazepam solution 0.125 % at dose of 5mg/kg animal (n=4). […] Simultaneously, each animal in treated and control groups was IP administered with acetic acid 0.6% (10 ml/kg) and individually housed in cage with a smooth flat floor. Antinociception was recorded by counting the number of writhes 5 minutes after injection of acetic acid for period of 10 minutes.

The subject of another series is Plasmodium berghei anka. Kind of series: Treatment and prophylaxis of malaria in infected mice, model of cerebral malaria (Example 12). In kind it is in vivo. The following applies: 10mg DHA/kg/day, ICR female mice; for mice survived: treatment regimen (from day 2 after infection, 4 days). Here is the method: Experiments were carried out in vivo in ICR female mice infected with 10^6 erythrocytes parasitized Plasmodium berghei anka, a model of cerebral malaria with striking similarities to the human disease. Infections were monitored using giemsa-stained thin blood smears prepared from tail blood. The animals were treated under isoflurane anesthesia with 10mg DHA/kg/day in a two divided daily doses by two dosage regimens: prophylaxis regimen- starting at 2 days before the infection for a total of 6 days; treatment regimen- starting on day 2 after infection (parasitemia first detected) for a total of 4 days. Mice were either treated by the intranasal administration or by the i.p. injection containing the same DHA doses. Controls included placebo (delivery carrier only) and untreated infected animals. Experiments were conducted in accordance with institutional guidelines for animal care.

The next series deals with nasal mucosa. The series is described as follows: Transport of fluorescent probe across nasal mucosa after in vivo administration, CLS microscopy (Example 15). The following applies: composition of the invention with 0.05% Rhodamine B, 100µL to the right nostril of rats, 1/2 hour. The protocol: A stock solution of Rhodamine B (2mg/mL) was prepared in water. 50mg of phospholipid were dissolved in 200 mg ethanol. […] The composition is stirred for additional 5 min. The composition is described in Table IV.

Each structure is given as a SMILES string.

Turning to `CN1C(=O)CN=C(c2ccccc2)c2cc(Cl)ccc21` [diazepam, 7-chloro-1,3-dihydro-1-methyl-5-phenyl-2H-1,4-benzo-diazepin-2-one], the “writhing episodes (number of writhes)” value with Female Balb/c mice (Experiment 1: intranasal vesicular composition, 5mg/kg, 0.5 h before acetic acid injection, versus untreated control) is listed as “efficiently prevented writhing episodes”; in the series with Female Balb/c mice (Experiment 2: intranasal vesicular composition, 5mg/kg, simultaneously with acetic acid injection, versus untreated control), “efficient in treating writhing episodes”; in the series on Female Balb/c mice (Experiment 3: intranasal vesicular composition 5mg/kg versus subcutaneous diazepam solution 5mg/kg, simultaneously with acetic acid injection), “significantly more efficient in treating writhing episodes as compared to the same dose of the drug administered subcutaneously”.
As to `C[C@H]1[C@@H](O)O[C@@H]2O[C@@]3(C)CC[C@H]4[C@H](C)CC[C@@H]1[C@@]24OO3` [DHA, dihydroartemisinin], the “mice in which parasites appeared” value in the series on Plasmodium berghei anka (prophylaxis regimen, i.p. injection) was found to be 74%. For the same compound, the values for the mice survived in the series with Plasmodium berghei anka (i.p. injection) and in the series with Plasmodium berghei anka (intranasal) were 19% and 75%, respectively.
With `CCN(CC)c1ccc2c(-c3ccccc3C(=O)O)c3ccc(=[N+](CC)CC)cc-3oc2c1.[Cl-]` [rhodamine B, Rhodamine B], in the series with nasal mucosa, the “transport across the nasal mucosa” value is listed as “efficiently delivered”.

(Values after patent EP1933809B1, “COMPOSITIONS FOR NASAL DELIVERY” (YISSUM RESEARCH DEVELOPMENT COMPANY OF THE HEBREW …, priority 2005, dated 2007).)
